In article PMC11945486, “TAS1R2/TAS1R3 Single-Nucleotide Polymorphisms Affect Sweet Taste Receptor Activation by Sweeteners: The SWEET Project” (Nutrients, 2025):
No end group written: not given here.

T1: human TAS1R2-WT/TAS1R3-L95P (Homo sapiens, UniProt Q7RTX0+Q8TE23, L95P)
T1 construct: expressed in transfected cells; host or cells: HEK293T stably expressing Gα16gust44
T1 sequence (Q8TE23 20-839): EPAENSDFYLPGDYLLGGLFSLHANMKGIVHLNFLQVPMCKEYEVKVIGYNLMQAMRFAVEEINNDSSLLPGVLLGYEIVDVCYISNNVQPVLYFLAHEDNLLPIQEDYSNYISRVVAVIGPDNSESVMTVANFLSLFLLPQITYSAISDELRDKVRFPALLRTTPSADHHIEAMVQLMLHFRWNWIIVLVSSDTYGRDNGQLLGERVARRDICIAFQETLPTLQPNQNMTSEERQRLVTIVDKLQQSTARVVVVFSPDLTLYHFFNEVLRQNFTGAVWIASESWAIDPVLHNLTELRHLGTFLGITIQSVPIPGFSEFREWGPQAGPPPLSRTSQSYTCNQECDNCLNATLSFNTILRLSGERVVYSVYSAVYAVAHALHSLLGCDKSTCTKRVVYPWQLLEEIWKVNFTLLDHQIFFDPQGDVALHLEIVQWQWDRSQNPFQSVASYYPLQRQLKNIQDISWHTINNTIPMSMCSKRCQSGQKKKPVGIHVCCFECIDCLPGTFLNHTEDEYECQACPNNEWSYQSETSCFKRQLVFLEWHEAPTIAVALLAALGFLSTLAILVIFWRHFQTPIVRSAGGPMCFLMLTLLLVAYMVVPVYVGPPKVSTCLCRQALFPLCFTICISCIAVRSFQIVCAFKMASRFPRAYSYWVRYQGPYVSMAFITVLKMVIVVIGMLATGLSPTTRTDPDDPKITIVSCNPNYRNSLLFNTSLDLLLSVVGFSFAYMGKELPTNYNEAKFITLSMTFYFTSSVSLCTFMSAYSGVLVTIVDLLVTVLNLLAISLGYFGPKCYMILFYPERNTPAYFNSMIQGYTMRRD
T1 sequence (Q7RTX0 21-852 L95P): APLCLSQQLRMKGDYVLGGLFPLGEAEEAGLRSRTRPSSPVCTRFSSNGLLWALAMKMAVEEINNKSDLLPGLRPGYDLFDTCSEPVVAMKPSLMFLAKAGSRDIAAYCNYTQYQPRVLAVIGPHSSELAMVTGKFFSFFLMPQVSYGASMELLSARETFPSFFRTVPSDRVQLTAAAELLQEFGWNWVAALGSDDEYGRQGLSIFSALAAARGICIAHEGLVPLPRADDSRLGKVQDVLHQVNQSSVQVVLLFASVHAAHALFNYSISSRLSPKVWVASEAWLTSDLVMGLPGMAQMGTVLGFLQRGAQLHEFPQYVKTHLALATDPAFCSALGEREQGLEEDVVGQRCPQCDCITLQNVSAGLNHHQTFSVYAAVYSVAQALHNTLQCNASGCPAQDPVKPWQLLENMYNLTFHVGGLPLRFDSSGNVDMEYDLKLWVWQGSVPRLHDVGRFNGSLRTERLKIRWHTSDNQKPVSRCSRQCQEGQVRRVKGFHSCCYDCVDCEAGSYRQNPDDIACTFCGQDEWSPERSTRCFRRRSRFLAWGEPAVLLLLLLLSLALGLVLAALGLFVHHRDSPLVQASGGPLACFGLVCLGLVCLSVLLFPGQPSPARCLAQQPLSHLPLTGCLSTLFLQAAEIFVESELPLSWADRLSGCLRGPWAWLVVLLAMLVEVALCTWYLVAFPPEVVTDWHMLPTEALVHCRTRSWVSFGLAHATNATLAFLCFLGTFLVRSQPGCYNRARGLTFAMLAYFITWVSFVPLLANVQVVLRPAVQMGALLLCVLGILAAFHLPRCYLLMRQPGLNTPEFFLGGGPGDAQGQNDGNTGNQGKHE

B1: thaumatin (protein)
chain: ATFEIVNRCSYTVWAAASKGDAALDAGGRQLNSGESWTINVEPGTKGGKIWARTDCYFDDSGSGICKTGDCGGLLRCKRFGRPPTTLAEFSLNQYGKDYIDISNIKGFNVPMDFSPTTRGCRGVRCAADIVGQCPAKLKAPGGGCNDACTVFQTSEYCCTTGKCGPTEYSRFFKRLCPDAFSYVLDKPTTVTCPGSSNYRVTFCPTA
modifications: Eight disulfides
notes: sweet-tasting plant protein, E957

Target: T1, human TAS1R2-WT/TAS1R3-L95P
Assay: Calcium mobilisation assay, TAS1R2-WT with TAS1R3 variant L95P
Format: cell-based
Settings: for Max ΔF/F0: maximal signal amplitude; for Max ΔF/F0 / EC50: "-": no activation
Source text: The coding sequences for TAS1R2 and TAS1R3 were commercially synthesised, and the human codon was optimised for expression in human cells. The coding sequences of human TAS1R2 and TAS1R3 were subcloned and inserted into the mammalian expression vectors pcDNA6/myc-HisA and pcDNA4/myc-HisA (Invitrogen; Thermo Fisher Scientific; Illkirch, France) between the EcoRI and NotI restriction sites, generating the plasmids pcDNA6-TAS1R2 and pcDNA4-TAS1R3, respectively. To increase protein expression in mammalian cells, an upstream start codon was used, which was a sequence called MAX, corresponding to the QBI SP163 element also described in pcDNA4-HisMax (Invitrogen; Thermo Fisher Scientific; Illkirch, France). To measure the expression level of the receptor by immunohistochemistry, we used the FLAG sequence ([…]) in the C-terminal position, which encodes the FLAG tag epitope. SNP variants of TAS1R2 and TAS1R3 were constructed based on […], respectively, using site-directed mutagenesis (Genewiz; Leipzig, Germany).
The HEK293T cells were kindly provided by Jay P. Slack (Givaudan Flavors Corporation; Cincinnati, OH, USA). HEK293T cells stably transfected with Gα16gust44 [43, 67] were seeded in poly-D-lysine-coated clear-bottom black 96-well plates (0.35 × 10^5 cells/well) in high-glucose DMEM supplemented with 2 mM GlutaMAX, 10% dialysed foetal bovine serum with penicillin/streptomycin and G418 (400 μg/mL) at 37 °C and 6.3% CO2 in a humidified atmosphere as previously reported. […] As a negative control, HEK293T cells were mock-transfected with the empty expression vector. After a further 24 h of incubation, the HEK293T cells were washed with C1 buffer (130 mM NaCl, 5 mM KCl, 10 mM HEPES pH 7.4 and 2 mM CaCl2). The 96-well plates containing the cells were then stimulated with sweet-tasting compounds. […] Different concentration ranges were tested depending on the sweet compound injected. The Ca^2+ changes were expressed as fractional changes in fluorescent light intensity: ΔF/F = (F − F0)/F0, where F was the fluorescent light intensity at each point, and F0 was the value of emitted fluorescent light prior to stimulus application. To calculate dose–response relationships, the changes in fluorescence upon stimulus application were averaged, mock-subtracted and baseline-corrected. The dose–response data obtained were adjusted using a 4-parameter logistic equation. The half-maximal effective concentrations (EC50 values) and maximal signal amplitudes were calculated using SigmaPlot software (version 15.0) (Systat Software; San Jose, CA, USA).
For in vitro calcium mobilisation assay performed on hTAS1R2-SNPs, hTAS1R3-SNPs and mTAS1R3-I60T, 6 to 7 concentrations were tested for each sweet compound, plus buffer alone. All concentration–receptor combinations were measured in duplicate, and each experiment was repeated at least 4 times (8 wells/concentration). Results were expressed for each concentration as ΔF/F mean ± SEM and represented as dose–response curves.

Row | Molecule | R1 = Variant EC50/WT EC50 | Max ΔF/F0 | EC50 [µM]
1 | C[C@H](CC[C@@H](O[C@@H]1O[C@H](CO[C@@H]2O[C@H](CO)[C@@H](O)[C@H](O)[C@H]2O)[C@@H](O)[C@H](O)[C@H]1O[C@@H]1O[C@H](CO)[C@@H](O)[C@H](O)[C@H]1O)C(C)(C)O)[C@H]1CC[C@@]2(C)[C@@H]3CC=C4[C@@H](CC[C@H](O[C@@H]5O[C@H](CO[C@@H]6O[C@H](CO)[C@@H](O)[C@H](O)[C@H]6O)[C@@H](O)[C@H](O)[C@H]5O)C4(C)C)[C@]3(C)[C@H](O)C[C@]12C [Mogroside V, mogroside V] | 8.4 | 0.08 | –
2 | C=C(C)[C@@H]1CC=C(/C=N/O)CC1 [Perillartine, perillartine] | 2.5 | 0.14 ± 0.02 | 33.9 ± 2.8
3 | brazzein (QDKCKKVYENYPVSKCQLANQCNYDCKLDKHARSGECFYDEKRNLQCICDYCEY; ends and bridges not checked; cysteine pairing not given here; UniProt P56552 1-54, looked up) [sweet-tasting protein obtained by recombinant production using the yeast Pichia pastoris] | 19.3 | 0.10 ± 0.05 | –
4 | thaumatin | 2.6 | 0.89 ± 0.01 | –
5 | B1 | – | – | 27.4 ± 5.8
